Test results: US20150329608A1 (INSTITUT PASTEUR, priority 2008, published 2015)
Peptide text beside a SMILES is read from it.

Tests used:
[1] = system: despair or resignation behavior in adult male rats; experiment: Behavioral despair test (forced swimming test)
[2] = system: colic inflammation in rats; experiment: Colic inflammation model (intrarectal TNBS); format: in vivo, rat; conditions: opiorphin 1 mg/kg i.v.
[3] = system: tail-flick response in male Wistar rats
[4] = system: anxiety in Wistar male rats
[5] = system: pharmaco-dependency behavior in rats; conditions: opiorphin at effective analgesic doses (1 mg/kg), repeated administration
[6] = system: acute pain behavioral response in male rats
[7] = system: locomotor activity in rats; conditions: opiorphin 1 mg/kg i.v.; vs control
[8] = system: chronic pain behavioral response in rats; experiment: Formalin test (chronic chemical inflammatory pain)

## CCCN(CCC)C1CCc2cccc(O)c2C1 (stereo not drawn) [8-OH-DPAT, reference compound]
[1]; 8-OH-DPAT 0.5 mg/kg
  immobility time in the test vs control group (Mann-Whitney): significantly less than that of the rats from the control group
  immobility time, change between pre-test and test (Wilcoxon): significantly decreases between the pre-test and the test

## CC(C)Cc1ccc(C(C)C(=O)O)cc1 (stereo not drawn) [ibuprofen, reference compound]
[2]
  protection of the colic wall from inflammation: protect the colic wall from inflammation

## CN1CC[C@]23c4c5ccc(O)c4O[C@H]2[C@@H](O)C=C[C@H]3[C@H]1C5 [morphine, reference compound]
Peristaltism in rats; rats treated with morphine
  inhibition of peristaltism as compared with control rats: 80-90%
[3]; 15 min post-injection, after 7 days chronic treatment
  morphine-induced increase vs Opiorphin-induced response, day 7: tended to be lower than the response induced by Opiorphin

## NC(=O)CC[C@H](N)C(=O)N[C@@H](CCCN=C(N)N)C(=O)N[C@@H](Cc1ccccc1)C(=O)N[C@@H](CO)C(=O)N[C@@H](CCCN=C(N)N)C(=O)O [opiorphin, QRFSR] (H-QRFSR-OH)
Memorization in rats; 24 hours after, Opiorphin 1 mg/kg i.v. given immediately after pre-test, average ±SEM, n=8
  latency time for entering the dark compartment, Test: 158.5 ± 20.5
Memorization in rats; opiorphin 1 mg/kg i.v.
  amnesia effect: does not show any amnesia effect
[4]; Opiorphin 1 mg/kg i.v., 15 minutes before the test, n=8
  overall anxiety score, Average ± SEM: 25.94 ± 3.74
[4]; opiorphin 1 mg/kg i.v.
  anxiolytic activity relatively to the control: did not show any anxiolytic activity
Peristaltism in rats; rats treated with opiorphin
  anti-peristaltic effect: not observed
[5]
  pharmaco-dependence: does not cause significant pharmaco-dependence
[6]; opiorphin 1 mg/kg i.v. vs morphine 6 mg/kg i.p.
  antinociceptive activity compared with morphine: equivalent
[6]; opiorphin 1 mg/kg i.v., n=8-12 rats/group
  antinociceptive activity: potent antinociceptive activity
[3]; 15, 25 and 60 minutes after treatment, Opiorphin 2 mg/kg i.v. vs morphine 1 mg/kg i.v.
  response latencies vs morphine-treated rats: did not significantly differ
[3]; Opiorphin 2 mg/kg i.v. once daily for 7 days
  tolerance to maximal antinociceptive effect: does not induce the development of tolerance
[3]; preliminary data, dose-dependent responses
  dose of maximal antinociceptive effect: 2 mg/kg
[7]
  hyperactivity effect: nor any significant hyperactivity effect
[8]; Naloxone 3 mg/kg
  analgesic effect of opiorphin in the presence of Naloxone: abolished
[8]; duration of licking of the paw and number of spasms, n=8 rats/group
  prolonged analgesic profile, dose effect: significant dose-dependent effect
[8]; i.v., duration of licking of the paw and number of spasms, 60 min
  dose of maximum anti-nociceptive potency: 1 to 2 mg/kg
[8]; specific antagonist of μ-opioid receptors, 0.8 mg/kg
  analgesic effect of opiorphin in the presence of CTPA: abolished
[1]; Naltrindole 10 mg/kg, specific antagonist of δ-opioid receptors
  effects of opiorphin in the presence of Naltrindole: abolished
[1]; administered intravenously, adult male rats
  dose of maximum antidepressant potency: 1 mg/kg
[1]; opiorphin 0.5 mg/kg i.v.
  immobility time in the test vs control group (Mann-Whitney): tends to be less than that of the rats from the control group
[1]; opiorphin 1 mg/kg i.v.
  immobility time in the test vs control group (Mann-Whitney): significantly less than that of the rats from the control group
  immobility time, change between pre-test and test (Wilcoxon): significantly decreases between the pre-test and the test
[1]; opiorphin 1 mg/kg i.v., second series
  effect in the behavioral despair model: induces an antidepressant effect in addition to a psychostimulant effect
[1]; opiorphin 2 mg/kg i.v.
  immobility time in the test vs control group (Mann-Whitney): significantly less than that of the rats from the control group
  immobility time, change between pre-test and test (Wilcoxon): significantly decreases between the pre-test and the test
[2]
  protection of the colic wall from inflammation: does not protect the colic wall from inflammation
